These results are taken from patent US8178574B2, “Tosylate salt of trans-N-isobutyl-3-fluoro-3-[3-fluoro-4-(pyrrolidin-1-yl-methyl)-phenyl] cyclobut anecarboxamide” (Pfizer Inc., priority 2007, dated 2012).

Data set [1] is described as follows: Aqueous solubility of the crystalline compound (RP-HPLC after temperature cycling). Conditions: for solubility thermodynamic at 25 h: aqueous buffer. The class given is physicochemical. The protocol: The following information was determined in regard of aqueous solubility. […] These values represent the solubility of the crystalline compound determined via RP-HPLC analysis after subjecting the drug media mixture to a temperature cycling program (40° C. for 8 hours, 15° C. for 5 hours, and 25° C. for 12 hours).

A short description of data set [2]: Hygroscopicity by dynamic vapor sorption (VTI, kinetic experiment). The class given is physicochemical. The protocol:
Hygroscopicity was assessed using a dynamic vapor sorption technique in which an accurately weighed sample is subjected to progressively changing water vapor pressure while simultaneously recording the weight change. The experiment is conducted isothermally at 25° C.
During the initial drying cycle (25° C., 1-3% RH), approximately 0.8% weight loss was observed, which is consistent with an anhydrous form. The sample gained 0.5% of its original weight when exposed to relative humidities from 0% to 90% at 25° C. (CQG≦2% wt. gain at 90% RH). […] FIG. 5 (VTI Moisture Sorption Data) reports results achieved in a step isotherm at a heating rate of 1° C./minute.

Structures are written as SMILES. Where a name gives a salt, the structure may show the parent alone.

In the case of `CC(C)CNC(=O)[C@H]1C[C@@](F)(c2ccc(CN3CCCC3)c(F)c2)C1` [tosylate salt of the invention], the solubility in data set [1] (0.1M phosphate buffered saline with 0.5 weight percent sodium taurocholate/phosphatidyl choline salts, final pH 7.4) turned out to be 7.0 mgA/mL. Besides, the thermodynamic solubility (in general, solubility found after equilibrating the solid with the medium) at 25 h in data set [1] (0.1M phosphate buffered saline, final pH 6.3, temperature cycling 40/15/25° C.) turned out to be 5000 µg/mL; in data set [1] (unbuffered water, final pH 4.7), 8400 µg/mL. In addition, the “weight loss during initial drying cycle” value in data set [2] (25° C., 1-3% RH) was “approximately 0.8%”. In addition, the “hygroscopicity (in words)” value in data set [2] (kinetic experiment (VTI), 25° C.) is on record as “very slightly hygroscopic”. Besides, the “weight gain (of original weight)” value in data set [2] (relative humidities from 0% to 90% at 25° C.) is on record as 0.5%.
